Target: T1, PMGL2 (uncultured bacterium, UniProt Z9SFY5SHV8, S173T/C202S, form not given)
T1 construct: recombinant, cloned into pET32a, poly-His tag; homodimer; GCSAG motif 172-176, catalytic Ser174, Asp272, His302; 319 residues visible in the mutant crystal
T1 sequence (Z9SFY5SHV8 1-343 S173T/C202S): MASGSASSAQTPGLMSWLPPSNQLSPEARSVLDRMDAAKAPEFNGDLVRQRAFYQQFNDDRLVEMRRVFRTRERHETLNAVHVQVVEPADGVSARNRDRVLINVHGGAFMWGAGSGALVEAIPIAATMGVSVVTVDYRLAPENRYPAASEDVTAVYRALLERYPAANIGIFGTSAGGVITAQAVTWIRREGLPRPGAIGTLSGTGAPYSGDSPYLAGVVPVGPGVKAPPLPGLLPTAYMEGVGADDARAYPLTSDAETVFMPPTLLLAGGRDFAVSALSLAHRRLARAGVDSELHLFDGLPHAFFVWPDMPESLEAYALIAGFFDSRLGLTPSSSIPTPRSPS
Assay: esterase kinetics
Format: biochemical
Details: 25 °C

Km: 450 µM
Structure (SMILES): CCCC(=O)Oc1ccc([N+](=O)[O-])cc1 [p-nitrophenyl butyrate]

— article PMC6986724, “Crystal structure of PMGL2 esterase from the hormone-sensitive lipase family with GCSAG motif around the catalytic serine” (PLoS ONE, 2020)
